Consider 137 compounds from a melting point compilation (Tetko et al.).

The conditions of the data set: a range is the spread between reports.
Usually melting point stands for the temperature, or range, at which the solid turns liquid. Compound `Cc1ccccc1Cc1ccccc1` displayed a melting point of 6.6 to 7 °C.
For `COC1=CC(=O)C=C(OC)C1=O` the value was 253 to 256 °C; for `O=C1CCOc2ccccc21`, 36.5 to 38 °C.
Turning to `CCCCCCCC/C=C\CCCCCCCCCCCC(N)=O`, the melting point is 77.5 to 79 °C.
For `c1ccc(CSSCc2ccccc2)cc1` the value was 70 to 71.5 °C.
For `C1COCCN1` the value was -5 to -4.8 °C; for `COc1cc(C=CC(=O)c2ccccc2O)ccc1O`, 126 to 129 °C; for `C=CCCCCCCCCCCCCCC`, 4 to 4.1 °C.
In the case of `COc1ccccc1O` it was 28 to 32 °C.
Compound `Cc1ccc(-c2cc(C(F)(F)F)nn2-c2ccc(S(N)(=O)=O)cc2)cc1` gave a melting point of 158 °C.
In turn, `O=C(O)Cc1ccccc1` yielded a melting point of 76 to 79 °C.
In the case of `COC(=O)c1ccccc1N` it was 24 to 24.5 °C; in that of `NNc1cc(Cl)ccc1Cl`, 102 to 104 °C; in that of `CC(CCC(=O)O)CC(=O)O` (configuration not stated), 100 to 101 °C.
In the case of `Cc1cc(C)c(S(=O)(=O)Cl)c(C)c1` it was 55 to 56 °C; in that of `CC(C)CC(C)(C)C`, -107 °C.
Consider `ON=C1CCCCC1`, for which the melting point was in the range of 89 to 90 °C.
Turning to `COC(=O)/C=C/C(=O)OC`, the melting point was in the range of 102 to 104 °C.
For `COc1cc(C#N)ccc1O` the value was 86 to 87 °C; for `N#CCc1ccccc1[N+](=O)[O-]`, 82 to 84 °C.
Regarding `O=[N+]([O-])c1cccc2cccnc12`, the melting point was in the range of 88 to 90 °C.
`CC1(C(=O)O)CCC(C(=O)O)C1(C)C` (configuration not stated): the melting point was 187 to 189 °C.
For `OCCCCO` the value was 16 to 20.4 °C; for `O=C1CCCCCN1`, 69 to 70 °C.
The compound `O=C(O)c1cc(-c2ccccc2)nc2ccccc12` came in with a melting point of 214 to 215 °C.
In the case of `c1ccc2cc3c(cc2c1)-c1cccc2cccc-3c12` it was 216 to 217 °C; in that of `Cc1ccco1`, -89 to -87.5 °C.
For `Brc1c(Br)c(Br)c(Oc2c(Br)c(Br)c(Br)c(Br)c2Br)c(Br)c1Br` the value was 305 to 306 °C; for `CCc1ccc(CC)cc1`, -43 to -42.8 °C; for `c1cc[nH]c1`, -23.4 °C.
For `Cc1n[nH]cc1Br` the value was 75 to 76.5 °C; for `CC(=O)n1ccnc1`, 101 to 102 °C; for `OCC(O)C(O)CO` (configuration not stated), 122 °C.
For `ClC(Cl)Cl`, the melting point was -63.6 to -63 °C.
Turning to `CC1=CC(=O)OC1=O`, the melting point was 7.5 to 8 °C.
Turning to `CC1=NNC(=O)C1`, the melting point was in the range of 221 to 222 °C.
In the case of `CN1CCN(C2=Nc3cc(Cl)ccc3Nc3ccccc32)CC1` it was 184 °C.
As for `O=C(O)c1cc([N+](=O)[O-])cc([N+](=O)[O-])c1`, the melting point lay in the range of 205 to 206 °C.
On to `COc1ccc(C(C)=O)c(OC)c1`, for which the melting point fell in the range of 40 to 41 °C.
For `Nc1ccc([N+](=O)[O-])cn1` the value was 187 to 188 °C; for `CC(O)CNCC(C)O` (configuration not stated), 42 to 44.5 °C.
For `CCCCC1C(=O)N(c2ccccc2)N(c2ccccc2)C1=O` the value was 105 to 107 °C.
For `Cc1ccc2c(c1)C(=O)c1ccccc1C2=O` the value was 172 to 177 °C.
In turn, `OCc1cccc(O)c1` had a melting point of 71 to 73 °C.
The compound `ClC1C(Cl)C(Cl)C(Cl)C(Cl)C1Cl` (configuration not stated) yielded a melting point of 159 to 160 °C.
In the case of `CCN(CC)c1ccccc1` it was -38.8 to -38 °C; in that of `O=C/C=C/c1ccccc1`, -8 to -7 °C; in that of `CCOc1ccc(NC(C)=O)cc1`, 134 to 138 °C.
For `O=[N+]([O-])c1cc(F)ccc1O` the value was 73 to 75 °C; for `N#CCc1ccccc1Cl`, 23 to 24 °C; for `O=[N+]([O-])c1cccc(I)c1`, 37 to 38.5 °C.
`O=C(O)C=Cc1ccc(Br)cc1` gave a melting point of 262 to 263 °C.
In the case of `Cc1ccc(Cl)cc1N` it was 23 to 26 °C; in that of `O=C(O)Cc1cccc([N+](=O)[O-])c1`, 118 to 119 °C; in that of `O=C(O)CCCCC1SCC2NC(=O)NC21` (configuration not stated), 230 to 232 °C.
In the case of `CC(CCC(=O)O)(c1ccc(O)cc1)c1ccc(O)cc1` it was 172 to 173 °C.
In turn, `CCOC(=O)C(NC=O)C(=O)OCC` displayed a melting point of 48.5 to 53 °C.
The compound `CC1OC(C)OC(C)O1` (configuration not stated) had a melting point of 12 to 12.6 °C.
In the case of `N#Cc1ccc2c(c1)OCO2` it was 93 to 94 °C; in that of `O=C(CBr)c1ccc(Br)cc1`, 109 to 111 °C.
With `CCCCC(C)(C)C`, the melting point was -121 °C.
Turning to `O=C(O)c1cc(F)c(F)cc1F`, the melting point fell in the range of 98 to 100 °C.
For `O=C(O)c1cc(Cl)ccc1O` the value was 171 to 174 °C; for `O=C(O)c1ccccc1N=Nc1ccc(O)cc1`, 205 to 206 °C; for `c1ccc2c(c1)cc1ccc3cccc4ccc2c1c34`, 176 to 179 °C.
As to `O=C(O)c1cccc(O)c1`, the melting point is 202 to 203 °C.
In the case of `O=C(c1ccc(Cl)cc1)c1ccccc1Cl` it was 65 to 67 °C.
Take `CCOP(=O)(OCC)OCC`: the melting point was -56.4 to -56 °C.
In the case of `COC(=O)c1ccc(C)cc1` it was 33.2 to 37 °C.
In the case of `Cc1ccccc1`, the melting point is -95 to -93 °C.
The compound `O=[N+]([O-])c1cc([N+](=O)[O-])c2ccccc2c1O` gave a melting point of 131 to 132 °C.
`CC(NC(=O)OC(C)(C)C)C(=O)O` (configuration not stated) displayed a melting point of 79.5 to 82 °C.
In the case of `NS(=O)(=O)c1ccc(Cl)cc1` it was 145 to 146 °C; in that of `COc1ccc(C#N)cc1`, 59 to 61.5 °C; in that of `OCC(CO)(CO)CO`, 258 to 262 °C.
For `Oc1ccc2c(c1)CCCC2` the value was 57 to 62 °C; for `COC(=O)c1ccc(Br)cc1`, 79 to 81 °C.
For `OCCSSCCO` the value was 25 to 26 °C; for `CCCC(C)(C)C(C)C`, -117 °C.
With `C=Cc1cccc([N+](=O)[O-])c1`, the melting point is -10 to -5 °C.
For `CCOC(=O)C(O)(c1ccc(Cl)cc1)c1ccc(Cl)cc1` the value was 36 to 37 °C; for `CC(=O)Nc1nnc(S(N)(=O)=O)s1`, 258 to 260 °C; for `COc1ccc(OC)c(N)c1`, 80 to 82.5 °C.
In the case of `O=C(C(=O)c1ccccc1)c1ccccc1` it was 94.5 to 95 °C; in that of `c1c[nH]nn1`, 23 to 24 °C.
For `BrC(c1ccccc1)(c1ccccc1)c1ccccc1`, the melting point fell in the range of 153 to 154 °C.
On to `CCCCCCCCCCc1ccccc1`, for which the melting point was -14.4 to -14 °C.
Take `CCCCC(=O)CC`: the melting point is -39 to -37 °C.
Regarding `CC(C)(C)c1cc(C=O)cc(C(C)(C)C)c1O`, the melting point lay in the range of 186 to 188 °C.
For `OC1CCCCCCCCCCC1` the value was 76 to 78 °C.
For `CCn1ccc(NS(=O)(=O)c2ccc(N)cc2)nc1=O`, the melting point lay in the range of 166 to 167 °C.
In the case of `C/C=C/CC(C)C` it was -124 °C; in that of `CC(=O)Nc1cccc([N+](=O)[O-])c1`, 152 to 155 °C; in that of `CCCCCC(C)C`, -109 to -105 °C.
With `NC(=O)c1ccccc1O`, the melting point lay within 140 to 142 °C.
For `c1ccc(-c2nnc(-c3ccccn3)nc2-c2ccccc2)cc1` the value was 191 to 192 °C.
For `Nc1cnc2ccccc2c1` the value was 91.5 to 94 °C; for `Cc1cccnc1`, -18.1 to -18 °C.
In the case of `Cn1nnnc1S` it was 122 to 127 °C; in that of `O=[N+]([O-])c1ccccc1I`, 50 to 54 °C; in that of `CCI`, -111 to -108 °C.
The compound `CCOC(=O)c1cccnc1` yielded a melting point of 8.5 to 9 °C.
In the case of `CC(=O)OC(C)C` it was -73.4 to -73 °C; in that of `O=C(NCc1ccccc1)c1ccccc1`, 105 to 106 °C.
For `CC12CCC(C(Br)C1=O)C2(C)C` (configuration not stated) the value was 76 to 77 °C; for `C=C(C)CCCC`, -103 °C.
For `OCC(Br)(Br)Br` the value was 79 to 81 °C; for `CCCCC#N`, -96.2 to -96 °C.
Compound `Cc1ccc(C(=O)c2ccc(C)cc2)cc1` showed a melting point of 94 to 96.5 °C.
In the case of `Nc1ccc(Cl)c([N+](=O)[O-])c1` it was 100 to 103 °C; in that of `CCCCCCCCCCC1CCCCC1`, -2 to -1.7 °C; in that of `O=[N+]([O-])c1ccccc1Br`, 42 to 43 °C.
In the case of `O=C1C=CC(=O)C=C1` it was 114 to 116 °C.
In the case of `O=C1c2ccccc2C(=O)c2c(Cl)cccc21` it was 159 to 163 °C.
As to `COc1cc(OC)cc(C(=O)O)c1`, the melting point fell in the range of 184 to 186 °C.
For `C=CC(=O)OCCCC`, the melting point is -64.6 to -64 °C.
In the case of `CCCCCC(C)(C)O` it was -50.4 to -50 °C; in that of `OCCc1ccccn1`, -8 to -7.8 °C; in that of `CF`, -143 to -142 °C.
Regarding `C1CC1`, the melting point was -128 to -127 °C.
For `CC12C=CC(=O)C=C1CCC1C2C(O)CC2(C)C1CCC2(O)C(=O)CO` (configuration not stated) the value was 235 to 240 °C; for `CCCCS(=O)CCCC`, 32.6 to 33 °C.
As for `Cc1cccc(C)c1Cl`, the melting point is -36 to -35 °C.
For `CC1=c2ccccc2=NC1c1ccccc1` (configuration not stated) the value was 91 to 91.5 °C; for `NC(=O)c1cccs1`, 181 to 182 °C.
For `COc1ccc(C=O)cc1OC` the value was 43 to 44 °C; for `O=C(O)CCCc1ccccc1`, 48 to 52 °C.
For `COS(=O)(=O)OC` the value was -32 to -27 °C.
For the compound `C=CCCCCCC`, the melting point was -102 °C.
In the case of `CS(C)(=O)=O` it was 109 to 110 °C; in that of `O=C(Nc1ccccc1)c1ccccc1O`, 136 to 137 °C; in that of `Brc1ccc(Br)cc1`, 87 to 88 °C.
For `ClCc1cccc(CCl)c1` the value was 34.2 to 36 °C; for `O=c1ccc2ccc(O)cc2o1`, 230 °C; for `OC1CCCCC1O` (configuration not stated), 100 to 102 °C.
In the case of `O=C(O)c1ccc(-c2ccccc2)cc1` it was 225 to 228 °C; in that of `CCCC#N`, -112 °C.
